Laboratory results taken from PMC4834746 (Anesthesiology and Pain Medicine, 2016).
“Also recorded” adds a separate entry of the source. Structures can show the parent of a compound that is named as a salt. Where two headings read alike, the source gives them in different places.

Columns and labels:
[1] = type: in vivo, rat
[2] = AM404 concentration in rat plasma after oral administration of acetaminophen; type: in vivo; conditions: oral 20 mg/kg acetaminophen, data not shown
[3] = type: in vivo, rat; conditions: for half-life: t1/2, rat plasma
[4] = male, Crl:CD(SD), rat, brain, po, 20 mg/kg
[5] = male, Crl:CD(SD), rat, plasma, po, 20 mg/kg
[6] = male, Crl:CD(SD), rat, plasma, po, 20 mg/kg, oral 20 mg/kg acetaminophen, mean
[7] = rat plasma, oral 20 mg/kg acetaminophen, mean, 20 mg/kg
[8] = rat plasma, oral 20 mg/kg acetaminophen, mean

Structure (SMILES)	AUC(0-t) [3, 5]	Cmax [3, 5]	k el [3, 5]	half-life [3, 6]	t1/2 [3, 7]	AUC0-2h [3, 8]	Cmax [3, 8]	Kel [3, 8]	t1/2 [3, 8]	tmax [3, 8]	also measured
CCCCC/C=C\C/C=C\C/C=C\C/C=C\CCCC(=O)Nc1ccc(O)cc1 [AM404, N-(4-hydroxyphenyl) arachidonamide]	–	–	–	–	–	–	–	–	–	–	conversion rate of acetaminophen to AM404 ([1]; calculated using AUC0-2h, oral 20 mg/kg acetaminophen, rat): 0.0013%; half-life [1, 4]: 18.3 min; k el [1, 4]: 0.000631 s⁻¹; AUC0-2h ([1]; rat brain, oral 20 mg/kg acetaminophen, mean): 117 pg·h/g; concentration of AM404 in plasma [2]: undetectable; also recorded: unable to detect
CC(=O)Nc1ccc(O)cc1 [APAP, Acetaminophen, reference compound]	8960 ng·h/mL	15800 ng/mL	0.000644 s⁻¹	17.9 min	–	–	–	–	–	–	–
CC(=O)Nc1ccc(O[C@@H]2O[C@H](C(=O)O)[C@@H](O)[C@H](O)[C@H]2O)cc1 [Glu, acetaminophen glucuronide]	7990 ng·h/mL	9300 ng/mL	0.000533 s⁻¹	25 min	21.7 min	–	–	–	–	–	tmax [3, 5]: 15 min
CC(=O)Nc1ccc(O)c(SC[C@H](NC(C)=O)C(=O)O)c1 [Mer, acetaminophen mercapturate acid]	–	–	–	–	–	0.167 µg·h/g	0.154 µg/g	0.890 h⁻¹	46.7 min	30 min	–
CC(=O)Nc1ccc(OS(=O)(=O)O)cc1 [Sul, acetaminophen sulfate]	–	–	–	–	25 min	22.2 µg·h/g	21.7 µg/g	1.67 h⁻¹	–	15 min	–
CC(=O)Nc1ccc(O)c(SC[C@H](N)C(=O)O)c1 [Sys, Acetaminophen cysteine]	–	–	–	–	–	0.251 µg·h/g	0.258 µg/g	1.44 h⁻¹	29 min	30 min	–
